Values of other authors, collected in patent US20100249031A1, “Nutritional Composition Comprising Curcuminoids and Methods of Manufacture” (priority 2009, published 2010).

Assays:
[1] = percentage of ingested curcuminoid metabolized by the body
Microtubule Assembly = details: @ 40 μM

Row | Metabolic Recovery [1] | SMILES | Inhibition of Microtubule Assembly (Microtubule Assembly)
1 | ~50% | COc1cc(/C=C/C(O)=C/C(=O)/C=C/c2ccc(O)cc2)ccc1O [DMC, demethoxycurcumin] | 
2 | ~75% | O=C(/C=C/c1ccc(O)cc1)CC(=O)/C=C/c1ccc(O)cc1 [BDMC, bisdemethoxycurcumin] | 
3 |  | COc1cc(/C=C/C(=O)CC(=O)/C=C/c2ccc(O)c(OC)c2)ccc1O [Curcumin, curcumin] | 50% @
